In ChEMBL document CHEMBL1132507, “Dibasic benzo[B]thiophene derivatives as a novel class of active site directed thrombin inhibitors: 4. SAR studies on the conformationally restricted C3-side chain of hydroxybenzo[B]thiophenes” (Bioorg Med Chem Lett, 1999):

molecular target: Prothrombin (Homo sapiens) (UniProt P00734); test: Apparent association constant towards thrombin.

SMILES | K ass
Oc1ccc2c(Cc3ccc(O[C@@H]4CCCC[C@H]4N4CCCC4)c(F)c3)c(-c3ccc(OCCN4CCCC4)cc3)sc2c1 | 1.21e+08 l M-1
Oc1ccc2c(Cc3ccc(O[C@@H]4CCCC[C@H]4N4CCOCC4)cc3)c(-c3ccc(OCCN4CCCC4)cc3)sc2c1 | 1.81e+07 l M-1
O=C(c1ccc(O[C@@H]2CCCC[C@H]2N2CCCCCC2)cc1)c1c(-c2ccc(OCCN3CCCC3)cc2)sc2ccccc12 | 490000 l M-1
Oc1cccc2c(Cc3ccc(O[C@@H]4CCCC[C@H]4N4CCCCC4)cc3)c(-c3ccc(OCCN4CCCC4)cc3)sc12 | 1.08e+06 l M-1
Cc1cc(Cc2c(-c3ccc(OCCN4CCCC4)cc3)sc3cc(O)ccc23)ccc1O[C@@H]1CCCC[C@H]1N1CCCC1 | 3.49e+08 l M-1
c1ccc2c(Cc3ccc(O[C@@H]4CCCC[C@H]4N4CCCCC4)cc3)c(-c3ccc(OCCN4CCCC4)cc3)sc2c1 | 2.04e+07 l M-1
CCN(CC)[C@@H]1CCCC[C@H]1Oc1ccc(Cc2c(-c3ccc(OCCN4CCCC4)cc3)sc3cc(O)ccc23)cc1 | 4.98e+07 l M-1
Oc1ccc2c(Cc3ccc(O[C@@H]4CCC[C@H]4N4CCCCC4)cc3)c(-c3ccc(OCCN4CCCC4)cc3)sc2c1 | 4.73e+07 l M-1
COc1cc(Cc2c(-c3ccc(OCCN4CCCC4)cc3)sc3cc(O)ccc23)ccc1O[C@@H]1CCCC[C@H]1N1CCCC1 | 3.09e+08 l M-1
Oc1ccc2sc(-c3ccc(OCCN4CCCC4)cc3)c(Cc3ccc(OC4CCCC[C@H]4N4CCCCC4)cc3)c2c1 (stereo partly drawn) | 1.39e+07 l M-1
COc1cccc2c(Cc3ccc(O[C@@H]4CCCC[C@H]4N4CCCCC4)cc3)c(-c3ccc(OCCN4CCCC4)cc3)sc12 | 118000 l M-1
Oc1ccc2c(Cc3ccc(O[C@@H]4CCCC[C@H]4n4ccnc4)cc3)c(-c3ccc(OCCN4CCCC4)cc3)sc2c1 | 8.08e+06 l M-1
COc1ccc2sc(-c3ccc(OCCN4CCCC4)cc3)c(Cc3ccc(O[C@@H]4CCCC[C@H]4N4CCCCC4)cc3)c2c1 | 3.65e+07 l M-1
Oc1ccc2c(Cc3ccc(O[C@@H]4CCCC[C@H]4N4CCCC4)c(Br)c3)c(-c3ccc(OCCN4CCCC4)cc3)sc2c1 | 2.8e+08 l M-1
Oc1ccc2c(Cc3ccc(O[C@@H]4CCCC[C@H]4N4CCCC4)c(O)c3)c(-c3ccc(OCCN4CCCC4)cc3)sc2c1 | 1.12e+07 l M-1
O=C(c1ccc(O[C@@H]2CCCC[C@H]2N2CCCCC2)cc1)c1c(-c2ccc(OCCN3CCCC3)cc2)sc2ccccc12 | 1.17e+06 l M-1
Oc1ccc2c(Cc3ccc(O[C@@H]4CCCC[C@H]4N4CCCCC4)cc3)c(-c3ccc(OCCN4CCCC4)cc3)sc2c1 | 2.12e+08 l M-1

The next lines start with the values.

K ass | SMILES
9.61e+07 l M-1 | Oc1ccc2c(Cc3ccc(O[C@@H]4CCCC[C@H]4N4CCCCC4)nc3)c(-c3ccc(OCCN4CCCC4)cc3)sc2c1
2.18e+08 l M-1 | Oc1ccc2c(Cc3ccc(O[C@@H]4CCCC[C@H]4N4CCCC4)cc3)c(-c3ccc(OCCN4CCCC4)cc3)sc2c1
6.84e+07 l M-1 | Oc1ccc2c(Cc3ccc(O[C@@H]4CCCC[C@H]4N4CCCC4)c(C(F)(F)F)c3)c(-c3ccc(OCCN4CCCC4)cc3)sc2c1
510000 l M-1 | O=C(c1ccc(O[C@@H]2CCCC[C@H]2N2CCCC2)cc1)c1c(-c2ccc(OCCN3CCCC3)cc2)sc2ccccc12
1.16e+08 l M-1 | COc1cc(Cc2c(-c3ccc(OCCN4CCCC4)cc3)sc3cc(O)ccc23)ccc1O[C@@H]1CCCC[C@H]1N1CCCCC1
5.11e+07 l M-1 | CN(C)[C@@H]1CCCC[C@H]1Oc1ccc(Cc2c(-c3ccc(OCCN4CCCC4)cc3)sc3cc(O)ccc23)cc1
2.03e+08 l M-1 | Oc1ccc2c(Cc3ccc(O[C@@H]4CCCC[C@H]4N4CCCCC4)c(F)c3)c(-c3ccc(OCCN4CCCC4)cc3)sc2c1
1.46e+08 l M-1 | COc1cc(Cc2c(-c3ccc(OCCN4CCCC4)cc3)sc3cc(O)ccc23)ccc1O[C@@H]1CCCC[C@H]1N(C)C
1.73e+06 l M-1 | Oc1cccc2sc(-c3ccc(OCCN4CCCC4)cc3)c(Cc3ccc(O[C@@H]4CCCC[C@H]4N4CCCCC4)cc3)c12
3.83e+06 l M-1 | COc1ccc2c(Cc3ccc(O[C@@H]4CCCC[C@H]4N4CCCCC4)cc3)c(-c3ccc(OCCN4CCCC4)cc3)sc2c1
7.48e+07 l M-1 | Oc1ccc2c(Cc3ccc(O[C@@H]4CCCC[C@H]4N4CCCCCC4)cc3)c(-c3ccc(OCCN4CCCC4)cc3)sc2c1
